Measured values from the supplement of paper PMC10307832.

Legend:
Test in all cases: relative viability (nuclei count vs DMSO), 5 days (fraction); higher = more cells survive
NCI-H2228 = test system: NCI-H2228
In short: (§1)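 The day after seeding in 1536-well plates, lung cancer cell lines were treated by pin tool with a single drug, or with a fixed anchor-drug dose together with five library-drug doses (not always all listed) in √10 steps. After 5 days, a combined fix-and-stain solution (final 0.05% Triton X-100, 1% formaldehyde, 1 ug/ml Hoechst) was added. Nuclei counted on 4× images gave relative viability as treated counts over vehicle counts, reported as the median of duplicate plates.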

RERF-LC-KJ = test system: RERF-LC-KJ
In short: as §1

HCC-78 = test system: HCC-78
In short: as §1

NCI-H596 = test system: NCI-H596
In short: as §1

NCI-H3122 = test system: NCI-H3122
In short: as §1

SK-MES-1 = test system: SK-MES-1
In short: as §1

NCI-H1993 = test system: NCI-H1993
In short: as §1

NCI-H1734 = test system: NCI-H1734
In short: as §1

NCI-H1355 = test system: NCI-H1355
In short: as §1

NCI-H2085 = test system: NCI-H2085
In short: as §1

NCI-H2347 = test system: NCI-H2347
In short: as §1

NCI-H2405 = test system: NCI-H2405
In short: as §1

NCI-H838 = test system: NCI-H838
In short: as §1

LC-2-ad = test system: LC-2-ad
In short: as §1

ChaGo-K-1 = test system: ChaGo-K-1
In short: as §1

HCC-366 = test system: HCC-366
In short: as §1

CAL-12T = test system: CAL-12T
In short: as §1

HOP-62 = test system: HOP-62
In short: as §1

NCI-H2009 = test system: NCI-H2009
In short: as §1

EMC-BAC-2 = test system: EMC-BAC-2
In short: as §1

PC-14 = test system: PC-14
In short: as §1

SW 1573 = test system: SW 1573
In short: as §1

LK-2 = test system: LK-2
In short: as §1

## O=C(O)CCCCC(CCSCc1ccccc1)SCc1ccccc1 (centres undefined) [CPI-613] + CS(=O)(=O)N1CCN(Cc2cc3nc(-c4cccc5[nH]ncc45)nc(N4CCOCC4)c3s2)CC1 [Pictilisib] (partner 1 µM)
NCI-H2228; first compound 5 µM
  relative viability: 0.429
NCI-H2228; first compound 15.81 µM
  relative viability: 0.382
NCI-H2228; first compound 50 µM
  relative viability: 0.596
NCI-H2228; first compound 158.11 µM
  relative viability: 0.374
NCI-H2228; first compound 500 µM
  relative viability: 0.0181
RERF-LC-KJ; first compound 5 µM
  relative viability: 0.455
RERF-LC-KJ; first compound 15.81 µM
  relative viability: 0.496
RERF-LC-KJ; first compound 50 µM
  relative viability: 0.605
RERF-LC-KJ; first compound 158.11 µM
  relative viability: 0.558
RERF-LC-KJ; first compound 500 µM
  relative viability: 0.438
HCC-78; first compound 5 µM
  relative viability: 0.203
HCC-78; first compound 15.81 µM
  relative viability: 0.167
HCC-78; first compound 158.11 µM
  relative viability: 0.156
HCC-78; first compound 500 µM
  relative viability: 0.206
NCI-H596; first compound 5 µM
  relative viability: 0.423
NCI-H596; first compound 15.81 µM
  relative viability: 0.442
NCI-H596; first compound 50 µM
  relative viability: 0.435
NCI-H596; first compound 158.11 µM
  relative viability: 0.339
NCI-H596; first compound 500 µM
  relative viability: 0.0372
NCI-H3122; first compound 5 µM
  relative viability: 0.587
NCI-H3122; first compound 15.81 µM
  relative viability: 0.614
NCI-H3122; first compound 50 µM
  relative viability: 0.591
NCI-H3122; first compound 158.11 µM
  relative viability: 0.605
NCI-H3122; first compound 500 µM
  relative viability: 0.031
SK-MES-1; first compound 5 µM
  relative viability: 0.368
SK-MES-1; first compound 15.81 µM
  relative viability: 0.314
SK-MES-1; first compound 50 µM
  relative viability: 0.363
SK-MES-1; first compound 158.11 µM
  relative viability: 0.399
SK-MES-1; first compound 500 µM
  relative viability: 0.371
NCI-H1993; first compound 5 µM
  relative viability: 0.762
NCI-H1993; first compound 15.81 µM
  relative viability: 0.698
NCI-H1993; first compound 50 µM
  relative viability: 0.715
NCI-H1993; first compound 158.11 µM
  relative viability: 0.648
NCI-H1993; first compound 500 µM
  relative viability: 0.496
NCI-H1734; first compound 5 µM
  relative viability: 0.466
NCI-H1734; first compound 15.81 µM
  relative viability: 0.383
NCI-H1734; first compound 50 µM
  relative viability: 0.434
NCI-H1734; first compound 158.11 µM
  relative viability: 0.274
NCI-H1734; first compound 500 µM
  relative viability: 0.113
NCI-H1355; first compound 5 µM
  relative viability: 0.417
NCI-H1355; first compound 15.81 µM
  relative viability: 0.389
NCI-H1355; first compound 50 µM
  relative viability: 0.374
NCI-H1355; first compound 158.11 µM
  relative viability: 0.29
NCI-H1355; first compound 500 µM
  relative viability: 0.0921
NCI-H2085; first compound 5 µM
  relative viability: 0.505
NCI-H2085; first compound 15.81 µM
  relative viability: 0.492
NCI-H2085; first compound 50 µM
  relative viability: 0.4
NCI-H2085; first compound 158.11 µM
  relative viability: 0.383
NCI-H2085; first compound 500 µM
  relative viability: 0.343
NCI-H2347; first compound 5 µM
  relative viability: 0.524
NCI-H2347; first compound 15.81 µM
  relative viability: 0.397
NCI-H2347; first compound 50 µM
  relative viability: 0.705
NCI-H2347; first compound 158.11 µM
  relative viability: 0.144
NCI-H2347; first compound 500 µM
  relative viability: 0.171
NCI-H2405; first compound 5 µM
  relative viability: 0.493
NCI-H2405; first compound 15.81 µM
  relative viability: 0.331
NCI-H2405; first compound 50 µM
  relative viability: 0.425
NCI-H2405; first compound 158.11 µM
  relative viability: 0.388
NCI-H2405; first compound 500 µM
  relative viability: 0.421
NCI-H838; first compound 5 µM
  relative viability: 0.483
NCI-H838; first compound 15.81 µM
  relative viability: 0.289
NCI-H838; first compound 50 µM
  relative viability: 0.392
NCI-H838; first compound 158.11 µM
  relative viability: 0.299
NCI-H838; first compound 500 µM
  relative viability: 0.0565
LC-2-ad; first compound 5 µM
  relative viability: 0.455
LC-2-ad; first compound 15.81 µM
  relative viability: 0.427
LC-2-ad; first compound 50 µM
  relative viability: 0.473
LC-2-ad; first compound 158.11 µM
  relative viability: 0.211
LC-2-ad; first compound 500 µM
  relative viability: 0.0075
ChaGo-K-1; first compound 5 µM
  relative viability: 0.519
ChaGo-K-1; first compound 15.81 µM
  relative viability: 0.663
ChaGo-K-1; first compound 50 µM
  relative viability: 0.707
ChaGo-K-1; first compound 158.11 µM
  relative viability: 0.612
ChaGo-K-1; first compound 500 µM
  relative viability: 0.33
HCC-366; first compound 5 µM
  relative viability: 0.149
HCC-366; first compound 15.81 µM
  relative viability: 0.144
HCC-366; first compound 50 µM
  relative viability: 0.154
HCC-366; first compound 158.11 µM
  relative viability: 0.12
HCC-366; first compound 500 µM
  relative viability: 0.157
CAL-12T; first compound 5 µM
  relative viability: 0.255
CAL-12T; first compound 15.81 µM
  relative viability: 0.393
CAL-12T; first compound 50 µM
  relative viability: 0.453
CAL-12T; first compound 158.11 µM
  relative viability: 0.385
CAL-12T; first compound 500 µM
  relative viability: 0.102
HOP-62; first compound 5 µM
  relative viability: 0.526
HOP-62; first compound 15.81 µM
  relative viability: 0.7
HOP-62; first compound 50 µM
  relative viability: 0.704
HOP-62; first compound 158.11 µM
  relative viability: 0.496
HOP-62; first compound 500 µM
  relative viability: 0.0332
NCI-H2009; first compound 5 µM
  relative viability: 0.855
NCI-H2009; first compound 15.81 µM
  relative viability: 0.675
NCI-H2009; first compound 50 µM
  relative viability: 0.722
NCI-H2009; first compound 158.11 µM
  relative viability: 0.0928
NCI-H2009; first compound 500 µM
  relative viability: 0.0311
EMC-BAC-2; first compound 5 µM
  relative viability: 0.549
EMC-BAC-2; first compound 15.81 µM
  relative viability: 0.483
EMC-BAC-2; first compound 50 µM
  relative viability: 0.556
EMC-BAC-2; first compound 158.11 µM
  relative viability: 0.556
EMC-BAC-2; first compound 500 µM
  relative viability: 0.133
PC-14; first compound 5 µM
  relative viability: 0.747
PC-14; first compound 15.81 µM
  relative viability: 0.677
PC-14; first compound 50 µM
  relative viability: 0.637
PC-14; first compound 158.11 µM
  relative viability: 0.725
PC-14; first compound 500 µM
  relative viability: 0.526
SW 1573; first compound 5 µM
  relative viability: 0.532
SW 1573; first compound 15.81 µM
  relative viability: 0.452
SW 1573; first compound 50 µM
  relative viability: 0.554
SW 1573; first compound 158.11 µM
  relative viability: 0.46
SW 1573; first compound 500 µM
  relative viability: 0.481
LK-2; first compound 5 µM
  relative viability: 0.583
LK-2; first compound 15.81 µM
  relative viability: 0.494
LK-2; first compound 50 µM
  relative viability: 0.535
LK-2; first compound 158.11 µM
  relative viability: 0.554
LK-2; first compound 500 µM
  relative viability: 0.472
